Tests used:
[1] = cited from earlier work
[2] = tested on: asthmatic mice; test: Decrease in airway resistance (Raw) by period of administration, Example 8 / Table 2; assay type: in vivo
Experimental: (§1) The periods of administration of the agents are 15 minutes, 2 days, and 28 days. […] This strongly supports the concept of combination therapy, such as with an inverse agonist and an agonist.

[3] = target: β2-adrenergic receptor (Mus musculus, UniProt P18762); test: Upregulation of β2-adrenergic receptor density by period of administration, Example 8 / Table 2; assay type: in vivo, mice; design: from tissue
Experimental: as §1

[4] = tested on: β2-adrenergic receptor; test: Determination of β-adrenergic receptor density by radioligand (ICYP) binding in lung membranes of treated asthmatic mice, Example 2; assay type: in vivo; conditions: for change of the level of the β2-adrenergic receptor, in words: chronic treatment; for Apparent KD (of radioligand ICYP) / Bmax (β-adrenergic receptor density) / βmax (β-adrenergic receptor density): lung membranes; for Apparent KD (of radioligand ICYP): KD of ICYP binding, not of the drug; for Bmax (β-adrenergic receptor density) / βmax (β-adrenergic receptor density): mean ± SEM, n=3-5
Experimental: β2-adrenergic receptor numbers were measured in asthmatic mice as follows. […] Mice were sacrificed and lung membranes were isolated as follows. Frozen lung tissue was homogenized in an ice-cold buffer containing 0.32 M sucrose and 25 mM Tris (pH 7.4) using a polytron (Pro 200, Pro Scientific, Inc.). The homogenate was centrifuged at 1000×g for 10 min at 4° C. The resulting supernatant was centrifuged at 40,000×g for 20 min at 4° C. The pellet was suspended in an ice-cold 25 mM Tris-HCl buffer (pH 7.4) and centrifuged at 40,000×g for 20 min at 4° C. The final pellet was suspended in 200 μL of 25 mM Tris-HCl (pH 7.4); membrane protein concentration was determined by BCA protein assay kit. […] The incubation was done at 37° C. for 2 h and terminated by rapid vacuum filtration through glass fiber filters. The filters were washed three times with 250 μL of cold wash buffer (25 mM Tris-HCl, pH 7.4) and the radioactivity determined in a counter. […] Receptor densities are expressed as femtomoles of sites per milligram of protein. Bmax is determined by nonlinear regression of the saturation binding curves. […] Please note that the 15-minute and 28-day time points refer to duration of drug treatment.

[5] = tested on: asthmatic mice (ovalbumin-sensitized and ovalbumin-challenged); test: Airway responsiveness to methacholine (airway resistance Raw, forced oscillation) in murine model of asthma, Example 1; assay type: in vivo, Balb/cJ mice; conditions: for airway responsiveness to methacholine provocation (Raw), chronic treatment: drug delivered for 28 days (chow or osmotic minipump); for airway responsiveness to methacholine provocation (Raw), acute treatment: single intravenous bolus 15 minutes before methacholine
Experimental: The results obtained in drug-treated animals were compared with those obtained in vehicle-treated counterparts (controls) in experiments performed in close temporal relationship. […] Mice were sensitized with subcutaneous injection of 25 μg of ovalbumin adsorbed to aluminum hydroxide on protocol days 2, 9, and 16. Subsequently, mice were given 50 μL of saline solution containing 25 μg of ovalbumin intranasally, on a daily basis, from protocol days 23 through 27. A group of ovalbumin-sensitized saline-challenged mice serves as controls for systemic sensitization and respiratory challenges with ovalbumin. Prior to intranasal administrations, mice were sedated with halothane vapor. For the study of Example 1, ovalbumin-sensitized and ovalbumin-challenged mice, and ovalbumin-sensitized and saline-challenged mice will be referred to as asthmatic mice and control mice, respectively. […] To examine the effects of duration of β-adrenergic ligand therapy on the phenotype of the murine model of asthma, the experimental drugs were administered either acutely or chronically to different groups of asthmatic mice. […] These concentrations were chosen based on those producing therapeutic effects in mice in previously published studies. The non-asthmatic mice were fed normal chow. Salbutamol was delivered for 28 days at a dose of 0.5 mg/kg/day using an osmotic minipump (Alzet®, #2004, Durect Corporation, Cupertino, CA). […] Airway resistance (Raw) was measured using the forced oscillation technique. The cellular composition of bronchoalveolar lavage fluid (BALF) was also determined. […] However, it was observed that the degree of airway responsiveness and the number of eosinophils recovered in BALF were lower in non-treated asthmatic mice studied in close temporal relationship with mice receiving acute β-adrenergic antagonist treatments that in those obtained in non-treated asthmatic mice studied concomitantly with mice on chronic β-adrenergic antagonist therapy. […] The complex input impedance of the respiratory system was computed and the value of the real part of respiratory system impedance at 19.75 Hz was taken to reflect the magnitude of airway resistance (Raw). To examine the degree of airway responsiveness of each animal, the values for Raw as a function of methacholine doses were plotted. The largest value for Raw achieved in response to methacholine stimulation was referred to as […]. For mice that achieved a plateau in the methacholine dose-Raw response curve, the ED50 was calculated by linear interpolation using the GraphPad Prism4 (GraphPad Software, Inc.). Results obtained for β-adrenergic drug-treated and non-treated mice were performed using the analysis of variance for multiple groups of a Student's t-test for comparing two groups. The Bonferroni test was used to examine the statistical differences between experimental groups. The effects of acute drug treatments on baseline respiratory system mechanics were assessed using a two-tailed paired t-test. A value of P<0.05 was considered significant.

[6] = cited from earlier work; remark: listed apart in the source
[7] = tested on: asthmatic mice; test: Chronic treatment with metoprolol and timolol on airway responsiveness in asthmatic mice, Example 9; assay type: in vivo; conditions: 7 days; metoprolol 20 mg/kg 3× daily s.c., timolol 20 mg/kg in chow; methacholine challenge
Experimental: Airway resistance (Raw) was measured as in Example 1. The results were compared to historical controls as shown in FIG. 9B: Ctrl, no drug treatment, no challenge with methacholine; NTX, no drug treatment, challenged with methacholine.

[8] = tested on: β-arrestin pathway; test: Blockade of the β-arrestin pathway, Example 16 / FIG. 16; assay type: cell-based
[9] = tested on: asthmatic mice (ovalbumin-sensitized, challenged); test: Combination of carvedilol and salbutamol on airway hyperresponsiveness, Example 4; conditions: 28 days treatment; highest dose of methacholine
Experimental: Mice (Balb/cJ) aged 6 weeks were housed under specific pathogen-free conditions and fed a chicken ovalbumin-free diet. Mice were systemically sensitized with ovalbumin adsorbed to aluminum hydroxide.
To induce airway constriction, a solution containing 150 μg/mL of methacholine was infused using a syringe infusion pump. […] Each methacholine dose was administered until a plateau was reached, during which data were sampled at 1-minute intervals for 3-5 minutes and then averaged.

[10] = tested on: asthmatic mice; test: β-adrenergic receptor drugs at low and high doses on airway resistance, Example 7; assay type: in vivo; conditions: chronic administration in chow, high and low dose
Experimental: For these experiments, salbutamol was used for chronic administration at 0.5 mg/kg/day with a minipump and for acute administration at 0.15 mg/kg by i.v. bolus 15 minutes prior to challenge. […] Carvedilol was used at a high dose of 2400 ppm in chow or at a low dose of 720 ppm in chow. […] In these diagrams, Ctrl=control mice, non-asthmatic, non-drug treated; NTX=asthmatic mice, non-drug treated; AC=acute administration; 2d=chronic administration for 2 days; 28d=chronic administration for 28 days. The airway resistance (Raw) is plotted as cm H2O ml^−1 s.

[11] = tested on: mucous metaplasia in sensitized/challenged mice; test: Mucous metaplasia in sensitized/challenged mice (photomicrographs), Example 10; assay type: in vivo; conditions: sensitized/challenged mice after treatment

β2-adrenergic receptor (Mus musculus, UniProt P18762), sequence (P18762 whole entry): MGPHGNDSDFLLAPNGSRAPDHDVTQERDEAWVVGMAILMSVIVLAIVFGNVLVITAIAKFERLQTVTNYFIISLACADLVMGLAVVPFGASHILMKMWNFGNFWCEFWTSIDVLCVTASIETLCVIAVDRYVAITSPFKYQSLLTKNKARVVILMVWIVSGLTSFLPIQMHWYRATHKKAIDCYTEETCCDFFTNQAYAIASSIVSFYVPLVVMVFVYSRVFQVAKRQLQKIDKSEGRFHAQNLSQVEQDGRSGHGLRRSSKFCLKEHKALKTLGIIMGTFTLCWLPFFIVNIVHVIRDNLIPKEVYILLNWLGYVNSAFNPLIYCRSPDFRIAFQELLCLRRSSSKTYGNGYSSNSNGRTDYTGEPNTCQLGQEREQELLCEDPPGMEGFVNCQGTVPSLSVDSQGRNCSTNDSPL

| SMILES | Decreased Raw ([2]; 15 minutes administration) | Decreased Raw ([2]; 2 days administration) | Decreased Raw ([2]; 28 days administration) | Increased β2AR density ([3]; 15 minutes administration) | Increased β2AR density ([3]; 2 days administration) | Increased β2AR density ([3]; 28 days administration) | Apparent KD (of radioligand ICYP) ([4]; drug treatment 15 Minutes) | Bmax (β-adrenergic receptor density) ([4]; drug treatment 15 Minutes) | Apparent KD (of radioligand ICYP) ([4]; drug treatment 28 Days) | βmax (β-adrenergic receptor density) ([4]; drug treatment 28 Days) | airway responsiveness to methacholine provocation (Raw), chronic treatment [5] | airway responsiveness to methacholine provocation (Raw), acute treatment [5] | block of the β-arrestin pathway [8] | also measured |
| --- | --- | --- | --- | --- | --- | --- | --- | --- | --- | --- | --- | --- | --- | --- |
| C[C@@H]1C[C@H]2[C@@H]3C[C@H](F)C4=CC(=O)C=C[C@]4(C)[C@@]3(F)[C@@H](O)C[C@]2(C)[C@@]1(O)C(=O)SCF [fluticasone] |  |  |  |  |  |  |  |  |  |  |  |  |  | first-pass hepatic metabolism of the systemically absorbed drug ([1]; inhaled drug): almost complete |
| CCCC1O[C@@H]2C[C@H]3[C@@H]4CCC5=CC(=O)C=C[C@]5(C)[C@H]4[C@@H](O)C[C@]3(C)[C@]2(C(=O)CO)O1 (stereo partly drawn) [budesonide] |  |  |  |  |  |  |  |  |  |  |  |  |  | plasma clearance of the two enantiomers per kilogram bodyweight, children with asthma higher than healthy adults ([1]; 6 children with asthma versus 11 healthy adults): about 50%; elimination half-life ([1]; in vivo): 2.8 ± 1.1 h; plasma clearance ([1]; in vivo): 84 ± 27 L/h; plasma clearance relative to average clearance of prednisolone ([1]; in vivo): about 10 fold; systemic availability of the swallowed fraction ([1]; in vivo): 10.7±4.3% |
| CC(C)(C)NCC(O)c1ccc(O)c(CO)c1 (stereo not drawn) [Salbutamol, salbutamol] | yes | no | no | yes | no | no | (228.8 ± 33.07) pM | 256.5 ± 29.24 femtomoles of sites per milligram of protein | (225.4 ± 41.79) pM | 97.0 ± 23.02 femtomoles of sites per milligram of protein | no protection was observed | reduced the level of airway responsiveness to methacholine provocation and the level of airway resistance |  | change of the level of the β2-adrenergic receptor, in words [4]: slight decrease; bioavailability of inhaled drug ([6]; 10 patients with cystic fibrosis versus healthy adults): greater than that in healthy adults |
| CC(C)(C)NC[C@H](O)COc1nsnc1N1CCOCC1 [timolol] |  |  |  |  |  |  |  |  |  |  |  |  |  | airway hyperresponsiveness after chronic treatment [7]: effective in reducing airway hyperresponsiveness in asthmatic mice |
| CC(C)NCC(O)COc1cccc2ccccc12 (stereo not drawn) [propranolol] |  |  |  |  |  |  |  |  |  |  |  |  | did not block the β-arrestin pathway |  |
| COc1ccccc1OCCNCC(O)COc1cccc2[nH]c3ccccc3c12 (stereo not drawn) [Carvedilol, carvedilol] | no | no | yes | no | no | yes | (565.2 ± 192.8) pM | 86.3 ± 19.42 femtomoles of sites per milligram of protein | (1444.0 ± 202.0) pM | 904.1 ± 43.46 femtomoles of sites per milligram of protein | reduced the responsiveness of asthmatic mice to methacholine provocation | enhanced the airway responsiveness in the asthmatic mice | did not block the β-arrestin pathway | bronchoconstriction / airway hyperresponsiveness to allergen and methacholine challenge [9]: higher bronchoconstriction than these treatments but less than the non-drug treated sensitized and challenged (NTX S/C) mice; protection from airway hyperresponsiveness [10]: providing protection from airway hyperresponsiveness with chronic administration; increase of the level of β2-adrenergic receptors over the non-treated mice ([4]; chronic administration, versus untreated methacholine-challenged asthmatic mice): over 10 fold |
| OCc1cc(C(O)CNCCCCCCOCCCCc2ccccc2)ccc1O (stereo not drawn) [salmeterol] |  |  |  |  |  |  |  |  |  |  |  |  |  | time in which the majority of a dose is eliminated in the feces ([6]; in vivo): ≤ 72 h |
| CC(C)(C)NCC(O)c1cc(O)cc(O)c1 (stereo not drawn) [terbutaline] |  |  |  |  |  |  |  |  |  |  |  |  |  | increase of bioavailability by the oral component ([6]; from an MDI): 6.7%; absorption through the lung ([6]; healthy smokers versus healthy nonsmokers): more rapidly in healthy smokers than in healthy nonsmokers |
| C=CCc1ccccc1OCC(O)CNC(C)C (stereo not drawn) [Alprenolol, alprenolol] | yes | no | no | yes | no | no | (453.6 ± 86.33) pM | 299.5 ± 12.19 femtomoles of sites per milligram of protein | (290.9 ± 55.07) pM | 179.2 ± 53.05 femtomoles of sites per milligram of protein | provides no benefit upon chronic administration | airway responsiveness was diminished | did not block the β-arrestin pathway | mucous metaplasia [11]: no improvement in mucous metaplasia; change of the level of the β2-adrenergic receptor, in words [4]: slight decrease of the level of the 2-adrenergic receptor |
| COCCc1ccc(OCC(O)CNC(C)C)cc1 (stereo not drawn) [metoprolol] |  |  |  |  |  |  |  |  |  |  |  |  |  | airway hyperresponsiveness after chronic treatment [7]: effective in reducing airway hyperresponsiveness in asthmatic mice |

Source: patent US20250017878A1 (Chronic Airway Therapeutics Limited, priority 2021, published 2025)
